Assay results: article PMC6519732 (Journal of medicinal chemistry, 2019)

How the values were obtained:
[1] = Metabolic stability in human liver microsomes; type: in vitro ADME; conditions: for half-life at 2 μM: human, liver microsomes
HepaRG cells = assay: CellTiter-Blue cell viability assay, HepaRG; conditions: 24 h of treatment, highest tested concentration (100 μM)
human recombinant HDAC6 = molecular target: T1, human recombinant HDAC6 (Homo sapiens, UniProt Q9UBN7); type: biochemical; conditions: for HDAC6 inhibition: concentrations up to 25 μM, data not shown; for LE, HDAC6 (ligand efficiency): from IC50 in place of Kd, T = 310 K; for SF 1/6, selectivity factor for HDAC6 over HDAC1: IC50(HDAC1)/IC50(HDAC6)
T1 sequence (Q9UBN7 1-1215): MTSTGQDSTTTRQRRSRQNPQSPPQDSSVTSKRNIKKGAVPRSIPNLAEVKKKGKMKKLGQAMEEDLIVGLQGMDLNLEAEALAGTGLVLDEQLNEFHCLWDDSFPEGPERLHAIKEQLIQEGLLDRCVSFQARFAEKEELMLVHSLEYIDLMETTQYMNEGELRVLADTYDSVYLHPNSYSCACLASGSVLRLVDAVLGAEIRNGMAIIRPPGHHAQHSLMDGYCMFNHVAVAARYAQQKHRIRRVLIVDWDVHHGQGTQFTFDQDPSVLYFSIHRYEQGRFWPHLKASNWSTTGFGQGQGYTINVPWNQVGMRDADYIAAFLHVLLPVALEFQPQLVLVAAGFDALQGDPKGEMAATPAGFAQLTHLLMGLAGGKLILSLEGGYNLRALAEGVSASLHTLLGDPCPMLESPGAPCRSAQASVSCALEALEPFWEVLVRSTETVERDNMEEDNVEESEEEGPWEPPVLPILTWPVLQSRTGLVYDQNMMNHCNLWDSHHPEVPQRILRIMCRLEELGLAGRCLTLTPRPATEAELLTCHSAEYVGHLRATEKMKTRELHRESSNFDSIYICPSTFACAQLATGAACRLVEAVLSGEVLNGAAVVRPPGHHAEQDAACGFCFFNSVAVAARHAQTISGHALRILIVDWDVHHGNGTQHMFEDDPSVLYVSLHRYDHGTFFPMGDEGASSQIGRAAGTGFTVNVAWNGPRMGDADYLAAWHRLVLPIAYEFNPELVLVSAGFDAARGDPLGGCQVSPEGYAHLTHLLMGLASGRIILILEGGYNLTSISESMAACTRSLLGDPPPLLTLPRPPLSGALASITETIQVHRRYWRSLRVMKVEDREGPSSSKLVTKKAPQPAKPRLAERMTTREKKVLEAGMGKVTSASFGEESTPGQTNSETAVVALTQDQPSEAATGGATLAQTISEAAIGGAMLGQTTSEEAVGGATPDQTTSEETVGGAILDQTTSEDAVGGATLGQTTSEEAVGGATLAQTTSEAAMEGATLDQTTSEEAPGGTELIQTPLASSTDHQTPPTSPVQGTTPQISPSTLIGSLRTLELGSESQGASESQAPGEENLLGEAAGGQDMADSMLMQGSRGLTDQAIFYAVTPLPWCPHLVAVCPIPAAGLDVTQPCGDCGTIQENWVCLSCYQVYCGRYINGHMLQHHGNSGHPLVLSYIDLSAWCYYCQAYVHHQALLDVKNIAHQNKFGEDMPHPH

HUH7 cells = conditions: HUH7, 10 and 100 μM, 72 h
MDA-MB-231 cells = conditions: MDA-MB-231, 10 and 100 μM, 72 h
T24 cells = conditions: T24, 10 and 100 μM, 72 h
human recombinant HDAC1 = human recombinant HDAC1 (Homo sapiens, UniProt Q13547); assay: In vitro HDAC1 inhibition, fluorogenic ZMAL assay; type: biochemical
Sequence of human recombinant HDAC1 (Q13547 whole entry): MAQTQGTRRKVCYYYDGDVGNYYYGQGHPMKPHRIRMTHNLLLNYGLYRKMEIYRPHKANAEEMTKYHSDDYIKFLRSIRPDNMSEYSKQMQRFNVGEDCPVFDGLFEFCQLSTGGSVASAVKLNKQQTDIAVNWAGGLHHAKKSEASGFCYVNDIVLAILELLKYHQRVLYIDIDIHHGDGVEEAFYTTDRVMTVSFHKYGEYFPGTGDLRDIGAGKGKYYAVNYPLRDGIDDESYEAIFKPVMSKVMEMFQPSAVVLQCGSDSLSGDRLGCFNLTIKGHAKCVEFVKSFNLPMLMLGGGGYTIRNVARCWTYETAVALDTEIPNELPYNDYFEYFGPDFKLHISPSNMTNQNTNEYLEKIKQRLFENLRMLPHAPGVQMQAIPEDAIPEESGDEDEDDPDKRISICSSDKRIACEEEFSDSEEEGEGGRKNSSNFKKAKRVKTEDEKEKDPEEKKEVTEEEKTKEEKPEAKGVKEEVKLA

hHDAC6 = conditions: cited from earlier work

SMILES | LE, HDAC6 (ligand efficiency) (human recombinant HDAC6) | IC50 (human recombinant HDAC1) [µM] | further results
Cn1c(=O)c2c(ncn2C)n(C)c1=O [Caffeine, reference compound] |  |  | half-life at 2 μM [1]: > 40 min
O=C(NO)c1ccc(CN2c3ccccc3Sc3ccccc32)cc1 [Compound 1a, 4-[(10H-Phenothiazin-10-yl)methyl]-N-hydroxybenzamide] |  |  | human liver microsomal stability (in words) [1]: moderate stability; compound remaining ([1]; human liver microsomes, after 40 min incubation): about 77%; half-life at 2 μM [1]: > 40 min; Viability of HepaRG cells (HepaRG cells): not affected
O=C(O)c1ccc(CN2c3ccccc3Sc3ccccc32)cc1 [Compound 5a, 4-[(10H-Phenothiazin-10-yl)methyl]benzoic acid] |  |  | activity on HDAC6 (in words) (human recombinant HDAC6): inactive; HDAC6 inhibition (human recombinant HDAC6): did not show noteworthy HDAC6 inhibition
O=C(O)c1ccc(CN2c3ccncc3Sc3ncccc32)cc1 [Compound 5n, 4-[(5H-Dipyrido[2,3-b:4’,3’-e][1,4]thiazin-5-yl)methyl]benzoic acid] |  |  | activity on HDAC6 (in words) (human recombinant HDAC6): inactive; HDAC6 inhibition (human recombinant HDAC6): did not show noteworthy HDAC6 inhibition
O=C(NO)c1ccc(CN2c3ccccc3Sc3cccc(Cl)c32)cc1 [Compound 7c, 4-[(1-Chloro-10H-phenothiazin-10-yl)methyl]-N-hydroxybenzamide] | 0.43 (kcal/mol)/non-H-Atom |  | 
O=C(NO)c1ccc(CN2c3ccccc3Sc3ccc(C(F)(F)F)cc32)cc1 [Compound 7d, N-Hydroxy-4-{[2-(trifluoromethyl)-10H-phenothiazin-10-yl]methyl}benzamide] | 0.37 (kcal/mol)/non-H-Atom |  | 
O=C(NO)c1ccc(CN2c3ccccc3[S+]([O-])c3ccccc32)cc1 [Compound 7e, N-Hydroxy-4-[(5-oxido-10H-phenothiazin-10-yl)methyl]benzamide] | 0.39 (kcal/mol)/non-H-Atom |  | 
O=C(NO)c1ccc(CN2c3ccccc3Sc3ccc(Cl)cc32)cc1 [Compound 7f, 4-[(2-Chloro-10H-phenothiazin-10-yl)methyl]-N-hydroxybenzamide] | 0.43 (kcal/mol)/non-H-Atom |  | 
COc1ccc2c(c1)N(Cc1ccc(C(=O)NO)cc1)c1ccccc1S2 [Compound 7g, N-Hydroxy-4-[(2-methoxy-10H-phenothiazin-10-yl)methyl]benzamide] | 0.42 (kcal/mol)/non-H-Atom |  | 
CCSc1ccc2c(c1)N(Cc1ccc(C(=O)NO)cc1)c1ccccc1S2 [Compound 7h, 4-{[2-(Ethylthio)-10H-phenothiazin-10-yl]methyl}-N-hydroxybenzamide] | 0.38 (kcal/mol)/non-H-Atom |  | 
O=C(NO)c1ccc(CN2c3ccccc3Sc3cccnc32)cc1 [Compound 7i, 4-[(10H-Benzo[b]pyrido[2,3-e][1,4]thiazin-10-yl)methyl]-N-hydroxybenzamide] |  |  | human liver microsomal stability (in words) [1]: metabolically quite stable; half-life at 2 μM [1]: > 40 min; effect on proliferation (in words) (HUH7 cells): inhibited proliferation; effect on proliferation (in words) (MDA-MB-231 cells): inhibited proliferation; effect on proliferation (in words) (T24 cells): inhibited proliferation; Viability of HepaRG cells (HepaRG cells): not affected
O=C(NO)c1ccc(CN2c3ccccc3Sc3ccncc32)cc1 [Compound 7j, 4-[(10H-Benzo[b]pyrido[3,4-e][1,4]thiazin-10-yl)methyl]-N-hydroxybenzamide] | 0.46 (kcal/mol)/non-H-Atom | 1.25 ± 0.01 | SF 1/6, selectivity factor for HDAC6 over HDAC1 (human recombinant HDAC6): 179
O=C(NO)c1ccc(CN2c3ccccc3Sc3nccnc32)cc1 [Compound 7k, 4-[(10H-Benzo[b]pyrazino[2,3-e][1,4]thiazin-10-yl)methyl]-N-hydroxybenzamide] | 0.44 (kcal/mol)/non-H-Atom | 3.84 ± 0.13 | SF 1/6, selectivity factor for HDAC6 over HDAC1 (human recombinant HDAC6): 226
O=C(NO)c1ccc(CN2c3cccnc3Sc3cccnc32)cc1 [Compound 7l, 4-[(10H-Dipyrido[2,3-b:2’,3’-e][1,4]thiazin-10-yl)methyl]-N-hydroxybenzamide] | 0.45 (kcal/mol)/non-H-Atom | 3.39 ± 0.23 | SF 1/6, selectivity factor for HDAC6 over HDAC1 (human recombinant HDAC6): 242
O=C(NO)c1ccc(CN2c3ccncc3Sc3ccncc32)cc1 [Compound 7m, 4-[(10H-Dipyrido[3,4-b:3’,4’-e][1,4]thiazin-10-yl)methyl]-N-hydroxybenzamide] | 0.46 (kcal/mol)/non-H-Atom | 0.79 ± 0.14 | 
Cc1nc2c(s1)Sc1ccccc1N2Cc1ccc(C(=O)NO)cc1 [Compound 7o, N-Hydroxy-4-[(2-methyl-4H-benzo[b]thiazolo[4,5-e][1,4]thiazin-4-yl)methyl]benzamide] | 0.42 (kcal/mol)/non-H-Atom | 5.05 ± 0.75 | SF 1/6, selectivity factor for HDAC6 over HDAC1 (human recombinant HDAC6): 136
O=C(NO)c1ccc(CN2c3ccccc3Sc3ccnnc32)cc1 [Compound 7p, 4-[(10H-Benzo[b]pyridazino[3,4-e][1,4]thiazin-10-yl)methyl]-N-hydroxybenzamide] | 0.45 (kcal/mol)/non-H-Atom | 1.06 ± 0.08 | 
O=C(NO)c1ccc(CN2c3ccccc3Sc3cc(Cl)nnc32)cc1 [Compound 7q, 4-[(3-Chloro-10H-benzo[b]pyridazino[3,4-e][1,4]thiazin-10-yl)methyl]-N-hydroxybenzamide] | 0.42 (kcal/mol)/non-H-Atom | 1.08 ± 0.04 | 
O=C(NO)c1ccc(CN2N=CC=C3Sc4ccccc4N=C32)cc1 [Compound 10p, 4-[(1H-Benzo[b]pyridazino[3,4-e][1,4]thiazin-1-yl)methyl]-N-hydroxybenzamide] | 0.44 (kcal/mol)/non-H-Atom | 0.75 ± 0.04 | 
O=C(NO)c1ccc(CN2N=C(Cl)C=C3Sc4ccccc4N=C32)cc1 [Compound 10q, 4-[(3-Chloro-1H-benzo[b]pyridazino[3,4-e][1,4]thiazin-1-yl)methyl]-N-hydroxybenzamide] | 0.38 (kcal/mol)/non-H-Atom | 4.58 ± 0.73 | 
CN1CCC2=C(C1)N(Cc1ccc(C(=O)NO)cc1)c1ccccc1S2 [Compound 14j, N-Hydroxy-4-[(2-methyl-1,2,3,4-tetrahydro-10H-benzo[b]pyrido[3,4-e][1,4]thiazin-10-yl)methyl]benzamide] | 0.41 (kcal/mol)/non-H-Atom |  | 
O=C(NO)c1ccc(N2c3ccccc3Sc3ccccc32)cc1 [Compound 18, N-Hydroxy-4-(10H-phenothiazin-10-yl)benzamide] | 0.33 (kcal/mol)/non-H-Atom | 5.87 ± 0.71 | SF 1/6, selectivity factor for HDAC6 over HDAC1 (human recombinant HDAC6): 2
O=C(NO)c1ccc(CCN2c3ccccc3Sc3ccccc32)cc1 [Compound 22, 4-[2-(10H-Phenothiazin-10-yl)ethyl]-N-hydroxybenzamide] | 0.37 (kcal/mol)/non-H-Atom | 11.7 ± 2.61 | SF 1/6, selectivity factor for HDAC6 over HDAC1 (human recombinant HDAC6): 86
CON(C)C(=O)c1ccc(CN2c3ccccc3Sc3ccccc32)cc1 [Compound 23, 4-[(10H-Phenothiazin-10-yl)methyl]-N-methoxy-N-methylbenzamide] |  |  | activity on HDAC1 (in words) (human recombinant HDAC1): completely inactive; activity on HDAC6 (in words) (human recombinant HDAC6): completely inactive
O=C(NO)c1ccc(CC(=O)N(CCO)c2ccccc2)cc1 [HPOB, N-hydroxy-4-(2-[(2-hydroxyethyl)(phenyl)amino]-2-oxoethyl)benzamide] |  |  | selectivity over HDAC1 (hHDAC6): ~ 50 fold
CCCCN(Cc1ccc(C(=O)NO)cc1)C(=O)Nc1ccccc1 [Nexturastat A] |  |  | selectivity over HDAC1 (hHDAC6): ~ 600 fold
CN1CCc2c(n(Cc3ccc(C(=O)NO)cc3)c3ccccc23)C1 [Regioisomer of Tubastatin] |  |  | SF 1/6, selectivity factor for HDAC6 over HDAC1 (hHDAC6; from published IC50 values): 3700
O=C(CCCCCCNC(=O)c1cnc(N(c2ccccc2)c2ccccc2)nc1)NO [Ricolinostat] |  |  | selectivity for HDAC6 relative to class I HDACs (hHDAC6; introduction, literature statement): at least 10 fold
